What was measured:
mice = conditions: Zanos et al., 2016, cited from earlier work
[1] = system: patients with major depressive disorder and bipolar depression; conditions: single intravenous 40-minute infusion; lasting 1 week; Zarate et al., 2012; cited from earlier work
[2] = Dose-escalation pharmacokinetics and metabolism study in 15 healthy subjects (LC-MS/MS)
Protocol: (§1) A dose-escalation study was performed in five consecutive periods (7 days wash-out) in 15 healthy subjects (5 females, 20-25, BMI 19.4-27.6 kg/m2). The racemic analytes were measured using validated LC-MS/MS methods according to Hasan et al., 2017 (Hasan et al., Quantitative chiral and achiral determination of ketamine and its metabolites by LC-MS/MS in human serum, urine and fecal samples, Journal of Pharmaceutical and Biomedical Analysis, 2017, 139, 87-97).
(§2) In addition, 5 mg ketamine (in form of ketamine hydrochloride) solution was intravenously administered within 30 min in fasting state.
The pharmacokinetics of ketamine and its metabolites norketamine and hydroxynorketamine were measured and depicted in the following table 1. AUC stands for the area under the curve, Cmax stands for the maximum plasma concentration, Tmax stands for the time to Cmax, F stands for absolute bioavailability, T1/2 stands for the apparent terminal half-life, AUCNK/K for the ratio of AUCNK to AUCK and AUCHNK/K for the ratio of AUCHNK to AUCK.
The maximum concentration (Cmax) and the time of maximum concentration (Tmax) were obtained directly from the measured concentration-time curves.
The area under the concentrations-time curve (AUC) was calculated with the measured data points from the time of administration until the last quantifiable concentration by the trapezoidal formula. The AUC was assessed up to the last sampling time above the limit of quantification and is extrapolated to infinity to obtain the AUC values.
Apparent Terminal half-life (T1/2) was calculated by the following equation T1/2=ln 2/λz.
The terminal elimination rate constant (λz) was evaluated from the terminal slope by log-linear regression analysis.
The absolute bioavailability (F) was calculated by the following equation Fabs=AUCoral/AUCiv×doseiv/doseoral. 4.2 Safety

[3] = Safety: adverse events in the dose-escalation study in healthy subjects
Protocol: as §1, §2
An adverse event (AE) therefore can be any unfavorable and unintended sign including an abnormal laboratory (or vital, ECG etc.) finding, symptom or disease temporally associated with the use of a medicinal (investigational) product, whether or not related to the medicinal (investigational) product.
A serious adverse event (SAE) is defined as any untoward medical occurrence that at any dose • results in death, or • is life-threatening, or • requires hospitalization or prolongation of existing hospitalization, or • results in persistent or significant disability/incapacity, or • is a congenital anomaly/birth defect
Adverse events (AE) were detected both by a standardized questionnaire on tolerability and by querying the subjects at the scheduled times. Furthermore, the subjects were asked to report any AE spontaneously.

[4] = 5 mg ketamine i.v. infusion (30 min), fasting
[5] = Treatment A ketamine 5 mg i.v., AEs certainly, probably or possibly related

N[C@@]1(c2ccccc2Cl)CCC[C@@H](O)C1=O [(2R,6R)-hydroxynorketamine]
ketamine-related side effects (mice): lack ketamine-related side effects | antidepressant-related actions (mice; independent of NMDR-inhibition): exerts antidepressant-related actions

CNC1(c2ccccc2Cl)CCCCC1=O (racemic) [ketamine, 2-(2-chlorophenyl)-2-(methylamino) cyclohexan-1-one]
improvement in patients with major depressive disorder and bipolar depression [1]: rapid improvement | CL/F of ketamine [2, 4]: 1.67 ± 0.380 L/min | CLM of ketamine [2, 4]: 268 ± 75.6 mL/min | CLintestinal of ketamine [2, 4]: 0.046 ± 0.097 mL/min | AUC ([2]; both, human, plasma, iv, 5 mg): 52.3 ± 12.2 ng·h/mL | CL renal ([2]; both, human, plasma, iv, 5 mg): 33.6 ± 36.5 mL/min | Cmax ([2]; both, human, plasma, iv, 5 mg): 29.9 ± 8.48 ng/mL | MRT ([2]; both, human, plasma, iv, 5 mg): 4.68 ± 2.01 h | Vd ([2]; both, human, plasma, iv, 5 mg): 6.58 ± 3.07 L/kg | half-life ([2]; both, human, plasma, iv, 5 mg): 5.89 ± 2.61 h | Number of AEs ([3]; Treatment A (ketamine 5 mg i.v.)): 10 | Number of subjects reporting dizziness (nervous system disorders) [3, 5]: 6 | Number of subjects reporting palpitation (cardiac disorders) [3, 5]: 1 | Number of subjects reporting tachycardia (cardiac disorder) [3, 5]: 1 | Percent of subjects reporting dizziness (nervous system disorders) [3, 5]: 40% | Percent of subjects reporting palpitation (cardiac disorders) [3, 5]: 7% | Percent of subjects reporting tachycardia (cardiac disorder) [3, 5]: 7%
